From patent US20190307820A1, “COMPOSITIONS AND METHODS OF USING STAT1/3 INHIBITORS WITH ONCOLYTIC HERPES VIRUS” (priority 2016, published 2019)

Assays:
[1] = system: oHSV-1 (G207) in BV2 cells; assay: G207 replication in BV2 cells with chemical inhibitors, plaque forming assay; type: cell-based, HSV-1
Method: (§1) FIG. 12A contains bar graphs showing the results of BV2 cells that were pre-treated with indicated chemical compounds for 1-2 hours and then infected with oHSV-1 at an MOI of 1. Viruses were harvested after 48 hours of oHSV-1 (G207) and indicated chemical inhibitor treatment.
as §1, with “12F is a” for “12A contains”, “graph” for “graphs”, “treatment. After 48 hours of treatment with oHSV-1 (G207) and C16, viruses were harvested and titrated by plaque forming assay on vero cells.” for “treatment.”
U87 (5×104) alone or U87+microglia co-culture (5×104+5×104) or BV2 microglia cells (5×104) alone were seeded into a 24-well plate. After overnight incubation (to allow the cells to attach), cells were pretreated with indicated concentration of NFkB inhibitor, Bay-11 (Santa Cruz, Canada) or an indicated concentration of imidazolo-oxindole derivative C16 (Milipore, Canada) or vehicle for 1-2 hours. The cells were then infected with oHSV-1 (G207 or HrR3) virus at a MOI of 1 in presence of chemical inhibitors for another 2 days. The viruses were harvested and titrated in vero cells by plaque forming assay in 12-well plates by triplicates.
The effects of a PKR inhibitor (C16), a NFkappaB inhibitor (Bay11), and an iNOS inhibitor (aminoguanidine hydrochloride) were tested on G207 replication in BV2 cells (Example 15). […] To verify that C16-mediated viral gene transcriptional augmentation is not due to deletions in ICP34.5 and/or ICP6 in G207, the effect of C16 on wild type (KOS) and ICP6 mutated (HrR3) HSV-1 infected BV2 cells was also examined. […] Finally, whether C16 can overcome this microglia-mediated suppression of viral replication in glioma cells was examined.

STAT1 = target: T1, STAT1 (Mus musculus, UniProt P42225); assay: Western blot of STAT1 phosphorylation in CT26 cells; type: cell-based; settings: 24 hours
T1 construct: Total protein was extracted after 24 hours and subjected to western blot analysis; endogenous in cells; host or cells: CT26 cells, with or without HrR3 infection
T1 sequence (P42225 whole entry): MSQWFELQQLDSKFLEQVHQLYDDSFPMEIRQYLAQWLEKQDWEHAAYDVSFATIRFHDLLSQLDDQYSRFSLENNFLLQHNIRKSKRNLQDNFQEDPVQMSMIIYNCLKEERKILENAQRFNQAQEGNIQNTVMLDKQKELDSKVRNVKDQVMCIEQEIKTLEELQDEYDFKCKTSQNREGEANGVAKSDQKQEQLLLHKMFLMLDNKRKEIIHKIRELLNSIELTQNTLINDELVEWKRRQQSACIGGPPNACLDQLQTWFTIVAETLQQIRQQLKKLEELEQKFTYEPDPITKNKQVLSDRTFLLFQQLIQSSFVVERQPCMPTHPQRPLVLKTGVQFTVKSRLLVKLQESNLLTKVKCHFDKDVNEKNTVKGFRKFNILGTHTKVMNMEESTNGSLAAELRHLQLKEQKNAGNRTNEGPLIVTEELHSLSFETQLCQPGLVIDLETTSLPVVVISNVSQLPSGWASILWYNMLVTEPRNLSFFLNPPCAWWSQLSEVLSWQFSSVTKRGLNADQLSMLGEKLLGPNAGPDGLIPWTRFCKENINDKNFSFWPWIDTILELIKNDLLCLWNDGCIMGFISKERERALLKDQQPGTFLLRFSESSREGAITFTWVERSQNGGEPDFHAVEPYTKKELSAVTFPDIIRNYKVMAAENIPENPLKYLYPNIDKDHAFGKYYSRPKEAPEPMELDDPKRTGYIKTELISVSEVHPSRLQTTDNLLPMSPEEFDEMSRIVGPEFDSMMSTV
Method: (§2) FIG. 19A and FIG. 19B, U87 cells (A) or CT26 cells (B) were treated with the indicated concentrations of HrR3 or NF or a combination. Total protein was extracted after 24 hours and subjected to western blot analysis. Band intensity was measured using Image J software and normalized to β-actin. Samples were run in triplicate and data are as means±S.E. Statistically significant differences are indicated by P<0.05 or P<0.01. FIG. 19C, Mice subcutaneously bearing U87 tumors were intratumorally injected with a single dose of HrR3 virus (1×10^6 PFU) and/or peritoneally injected doses of NF as indicated. Tumors were harvested on day 10 post treatment and total protein was extracted from a mouse of each treatment group and subjected to western blot analysis in triplicate. Results are reported as means±S.E.
(§3) NF is a known inhibitor of STAT1 and STAT3. To evaluate the underlying molecular mechanism of the anti-tumour effect of the NF and oHSV-1 combination, the STAT1 and STAT3 status in U87 cells (FIG. 19A) and CT26 cells (FIG. 19B) cells was determined after an overnight treatment with NF and oncolytic viruses.

STAT3 = target: T2, STAT3 (Mus musculus, UniProt P42227); assay: Western blot of STAT3 phosphorylation in CT26 cells; type: cell-based; settings: 24 hours
T2 construct: Total protein was extracted after 24 hours and subjected to western blot analysis; endogenous in cells; host or cells: CT26 cells, with or without HrR3 infection
T2 sequence (P42227 whole entry): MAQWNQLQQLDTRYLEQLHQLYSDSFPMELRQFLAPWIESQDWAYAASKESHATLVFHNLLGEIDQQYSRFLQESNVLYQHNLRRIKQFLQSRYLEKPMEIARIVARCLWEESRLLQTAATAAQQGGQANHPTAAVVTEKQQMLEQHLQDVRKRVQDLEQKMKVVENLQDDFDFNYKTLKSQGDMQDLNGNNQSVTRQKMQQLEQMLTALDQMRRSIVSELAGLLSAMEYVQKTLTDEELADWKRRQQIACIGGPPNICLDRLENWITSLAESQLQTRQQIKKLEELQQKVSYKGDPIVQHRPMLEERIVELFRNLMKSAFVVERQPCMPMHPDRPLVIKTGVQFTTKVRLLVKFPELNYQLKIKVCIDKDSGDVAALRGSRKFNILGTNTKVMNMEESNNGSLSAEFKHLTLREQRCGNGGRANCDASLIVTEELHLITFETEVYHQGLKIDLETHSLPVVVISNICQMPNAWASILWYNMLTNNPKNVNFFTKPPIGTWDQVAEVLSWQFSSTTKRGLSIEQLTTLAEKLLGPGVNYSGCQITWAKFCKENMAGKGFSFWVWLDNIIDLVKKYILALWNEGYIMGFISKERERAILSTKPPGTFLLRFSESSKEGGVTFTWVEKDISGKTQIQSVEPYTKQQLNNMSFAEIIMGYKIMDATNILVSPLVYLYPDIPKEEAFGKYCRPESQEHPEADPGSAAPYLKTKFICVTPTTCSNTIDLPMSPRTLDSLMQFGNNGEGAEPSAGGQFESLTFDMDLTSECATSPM
Method: as §2, §3

SF126 cells = assay: MTT cytotoxicity assay, SF126 cells; type: cell-based; settings: Homo sapiens, SF-126, 72 hours, read-out: Inhibitory concentration 50% (IC50)
Method: FIGS. 1A-1B are graphs that show an anti-tumor effect of nifuroxazide. (FIG. 1A) Cells were treated with indicated concentration of nifuroxazide for 72 hours. Cytotoxicity was measured by using MTT assay. (FIG. 1B) Subcutaneously U87 tumor bearing mice were peritoneally injected with indicated doses of nifuroxazide. Tumor size was measured using calipers at day 7 post nifuroxazide treatment.
In this example, the antitumor effect of nifuroxazide is evaluated in different tumor cells. Cells were treated with nifuroxazide for 72 hours (FIG. 1A). […] To verify the anti-tumor efficacy of nifuroxazide in vivo, animals with subcutaneous U87 tumor implants were injected in the peritoneum with vehicle, 1 mg/kg nifuroxazide and 50 mg/kg nifuroxazide. […] Tumor volume was reduced around 25% and 60% after 7 days treatment with 1 mg/kg nifuroxazide and 50 mg/kg nifuroxazide respectively (FIG. 1B).
Cells were seeded in a 96-well plate at a density of 1×104 (U87). After overnight incubation, cells were treated with only vehicle or indicated MOI of virus or indicated concentration of drugs or reagents. After 2 to 3 days of treatment cell viability was measured by MTT assay (Sigma, Canada) according to the manufacturer's instruction. […] After overnight incubation with lysis buffer, cell viability was measured at 595 nm using a plate reader (Envision 2103 Multilabel reader, Perkin Elmer).

ICP27 = assay: Western blot of ICP27 in HrR3 infected U87 cells; type: cell-based, HSV-1; settings: 0.5 μM, 1 μM and 10 μM nifuroxazide, HrR3 MOI-3, 24 hours
Method: FIGS. 4A-4C show the effect of nifuroxazide on HSV-1 gene expression. (FIG. 4A) U87 cells were treated with HrR3 viruses at a MOI-3 and indicated doses of nifuroxazide. 24 hours post infected, total protein was extracted and subjected to western blot analysis. (FIG. 4B) U87 cells were treated with HrR3 at a MOI-5 and indicated concentration of nifuroxazide for 6 hours. ICP27 mRNA level was detected by RT-qPCR. (FIG. 4C) Relative mRNA level (2^−ΔΔCT) is shown. Data are presented as mean SD, *P<0.05 vs corresponding vehicle treatment.
In this example, the underlying mechanism of nifuroxazide mediated oHSV-1 replication enhancement was examined. The effect of nifuroxazide on viral immediate early gene, ICP27 and ICP4 expression was established by Western blot analysis.

| SMILES | enhanced the replication ([1]; 1 μM of C16, G207 MOI of 1, 48 hours) [times] | enhanced the replication ([1]; 10 μM of C16, G207 MOI of 1, 48 hours) [times] | HrR3 induced upregulation of STAT1 phosphorylation (STAT1) | phosphorylation of STAT1 (STAT1; NF alone) | HrR3 induced upregulation of STAT3 phosphorylation (STAT3) | phosphorylation of STAT3 (STAT3; NF alone) | IC50 (SF126 cells) [µM] | ICP27 expression (ICP27) |
| --- | --- | --- | --- | --- | --- | --- | --- | --- |
| O=C1Nc2ccc3ncsc3c2/C1=C/c1c[nH]cn1 [C16, 6,8-Dihydro-8-(1H-imidazol-5-ylmethylene)-7H-pyrrolo[2,3-g]benzothiazol-7-one] | 9 | 8 | – | – | – | – | – | – |
| O=C(N/N=C/c1ccc([N+](=O)[O-])o1)c1ccc(O)cc1 [nifuroxazide, Benzoic acid, 4-hydroxy-, [(5-nitro-2-furanyl)metylene]hydrazide] | – | – | effectively suppressed | dose dependent inhibition | effectively suppressed | dose dependent inhibition | ~20 | significantly increases ICP27 expression |
